According to patent US10322111B2, “Chemokine receptor binding heterocyclic compounds with enhanced efficacy” (Genzyme Corporation, priority 2001, dated 2019):
Read-outs that look alike come from different tables or passages of the source.

Assays:
[1] = test system: unseparated and low density nucleated cells; details: 80 μg/kg s.c.; for % CHG, nucleated cellularity PBL-LD / % CHG, nucleated cellularity PBL-US / Fold Change Compared to TIME = 0, nucleated cellularity PBL-LD, MEAN / Fold Change Compared to TIME = 0, nucleated cellularity PBL-US, MEAN: average of 5 donors
[2] = test system: CD34 positive progenitor cells

c1cc(CN2CCCNCCNCCCNCC2)ccc1CN1CCCNCCNCCCNCC1 [AMD3100, 1,1′-[1,4-phenylene-bis(methylene)]-bis-1,4,8,11-tetraazacyclotetradecane]
FOLD CHANGE COMPARED TO TIME = 0, nucleated cellularity PBL-LD ([1]; P1, T = 1 h after injection): 2.07 fold
FOLD CHANGE COMPARED TO TIME = 0, nucleated cellularity PBL-US ([1]; P1, T = 1 h after injection): 2.54 fold
FOLD CHANGE COMPARED TO TIME = 0, nucleated cellularity PBL-LD ([1]; P1, T = 3 h after injection): 2.83 fold
FOLD CHANGE COMPARED TO TIME = 0, nucleated cellularity PBL-US ([1]; P1, T = 3 h after injection): 3.55 fold
FOLD CHANGE COMPARED TO TIME = 0, nucleated cellularity PBL-LD ([1]; P1, T = 6 h after injection): 4.07 fold
FOLD CHANGE COMPARED TO TIME = 0, nucleated cellularity PBL-US ([1]; P1, T = 6 h after injection): 3.97 fold
FOLD CHANGE COMPARED TO TIME = 0, nucleated cellularity PBL-LD ([1]; P1, T = 9 h after injection): 3.65 fold
FOLD CHANGE COMPARED TO TIME = 0, nucleated cellularity PBL-US ([1]; P1, T = 9 h after injection): 3.27 fold
FOLD CHANGE COMPARED TO TIME = 0, nucleated cellularity PBL-LD ([1]; P1, T = 24 h after injection): 1.01 fold
FOLD CHANGE COMPARED TO TIME = 0, nucleated cellularity PBL-US ([1]; P1, T = 24 h after injection): 1.21 fold
FOLD CHANGE COMPARED TO TIME = 0, nucleated cellularity PBL-LD ([1]; P2, T = 1 h after injection): 1.99 fold
FOLD CHANGE COMPARED TO TIME = 0, nucleated cellularity PBL-US ([1]; P2, T = 1 h after injection): 1.38 fold
FOLD CHANGE COMPARED TO TIME = 0, nucleated cellularity PBL-LD ([1]; P2, T = 3 h after injection): 3.25 fold
FOLD CHANGE COMPARED TO TIME = 0, nucleated cellularity PBL-US ([1]; P2, T = 3 h after injection): 2.74 fold
FOLD CHANGE COMPARED TO TIME = 0, nucleated cellularity PBL-LD ([1]; P2, T = 6 h after injection): 3.90 fold
FOLD CHANGE COMPARED TO TIME = 0, nucleated cellularity PBL-US ([1]; P2, T = 6 h after injection): 2.94 fold
FOLD CHANGE COMPARED TO TIME = 0, nucleated cellularity PBL-LD ([1]; P2, T = 9 h after injection): 4.43 fold
FOLD CHANGE COMPARED TO TIME = 0, nucleated cellularity PBL-US ([1]; P2, T = 9 h after injection): 3.30 fold
FOLD CHANGE COMPARED TO TIME = 0, nucleated cellularity PBL-LD ([1]; P2, T = 24 h after injection): 1.71 fold
FOLD CHANGE COMPARED TO TIME = 0, nucleated cellularity PBL-US ([1]; P2, T = 24 h after injection): 1.43 fold
FOLD CHANGE COMPARED TO TIME = 0, nucleated cellularity PBL-LD ([1]; P3, T = 1 h after injection): 1.48 fold
FOLD CHANGE COMPARED TO TIME = 0, nucleated cellularity PBL-US ([1]; P3, T = 1 h after injection): 1.38 fold
FOLD CHANGE COMPARED TO TIME = 0, nucleated cellularity PBL-LD ([1]; P3, T = 3 h after injection): 2.17 fold
FOLD CHANGE COMPARED TO TIME = 0, nucleated cellularity PBL-US ([1]; P3, T = 3 h after injection): 2.02 fold
FOLD CHANGE COMPARED TO TIME = 0, nucleated cellularity PBL-LD ([1]; P3, T = 6 h after injection): 2.27 fold
FOLD CHANGE COMPARED TO TIME = 0, nucleated cellularity PBL-US ([1]; P3, T = 6 h after injection): 2.74 fold
FOLD CHANGE COMPARED TO TIME = 0, nucleated cellularity PBL-LD ([1]; P3, T = 9 h after injection): 2.47 fold
FOLD CHANGE COMPARED TO TIME = 0, nucleated cellularity PBL-US ([1]; P3, T = 9 h after injection): 2.69 fold
FOLD CHANGE COMPARED TO TIME = 0, nucleated cellularity PBL-LD ([1]; P3, T = 24 h after injection): 0.79 fold
FOLD CHANGE COMPARED TO TIME = 0, nucleated cellularity PBL-US ([1]; P3, T = 24 h after injection): 0.96 fold
FOLD CHANGE COMPARED TO TIME = 0, nucleated cellularity PBL-LD ([1]; P4, T = 1 h after injection): 1.66 fold
FOLD CHANGE COMPARED TO TIME = 0, nucleated cellularity PBL-US ([1]; P4, T = 1 h after injection): 1.36 fold
FOLD CHANGE COMPARED TO TIME = 0, nucleated cellularity PBL-LD ([1]; P4, T = 3 h after injection): 2.82 fold
FOLD CHANGE COMPARED TO TIME = 0, nucleated cellularity PBL-US ([1]; P4, T = 3 h after injection): 2.46 fold
FOLD CHANGE COMPARED TO TIME = 0, nucleated cellularity PBL-LD ([1]; P4, T = 6 h after injection): 2.78 fold
FOLD CHANGE COMPARED TO TIME = 0, nucleated cellularity PBL-US ([1]; P4, T = 6 h after injection): 2.60 fold
FOLD CHANGE COMPARED TO TIME = 0, nucleated cellularity PBL-LD ([1]; P4, T = 9 h after injection): 2.48 fold
FOLD CHANGE COMPARED TO TIME = 0, nucleated cellularity PBL-US ([1]; P4, T = 9 h after injection): 2.24 fold
FOLD CHANGE COMPARED TO TIME = 0, nucleated cellularity PBL-LD ([1]; P4, T = 24 h after injection): 0.60 fold
FOLD CHANGE COMPARED TO TIME = 0, nucleated cellularity PBL-US ([1]; P4, T = 24 h after injection): 0.77 fold
FOLD CHANGE COMPARED TO TIME = 0, nucleated cellularity PBL-LD ([1]; P5, T = 1 h after injection): 2.10 fold
FOLD CHANGE COMPARED TO TIME = 0, nucleated cellularity PBL-US ([1]; P5, T = 1 h after injection): 1.76 fold
FOLD CHANGE COMPARED TO TIME = 0, nucleated cellularity PBL-LD ([1]; P5, T = 3 h after injection): 3.20 fold
FOLD CHANGE COMPARED TO TIME = 0, nucleated cellularity PBL-US ([1]; P5, T = 3 h after injection): 3.23 fold
FOLD CHANGE COMPARED TO TIME = 0, nucleated cellularity PBL-LD ([1]; P5, T = 6 h after injection): 5.30 fold
FOLD CHANGE COMPARED TO TIME = 0, nucleated cellularity PBL-US ([1]; P5, T = 6 h after injection): 4.04 fold
FOLD CHANGE COMPARED TO TIME = 0, nucleated cellularity PBL-LD ([1]; P5, T = 9 h after injection): 5.17 fold
FOLD CHANGE COMPARED TO TIME = 0, nucleated cellularity PBL-US ([1]; P5, T = 9 h after injection): 3.96 fold
FOLD CHANGE COMPARED TO TIME = 0, nucleated cellularity PBL-LD ([1]; P5, T = 24 h after injection): 1.12 fold
FOLD CHANGE COMPARED TO TIME = 0, nucleated cellularity PBL-US ([1]; P5, T = 24 h after injection): 0.99 fold
% CHG, nucleated cellularity PBL-LD ([1]; T = 1 h after injection): 86.2%
% CHG, nucleated cellularity PBL-US ([1]; T = 1 h after injection): 68.6%
Fold Change Compared to TIME = 0, nucleated cellularity PBL-LD, MEAN ([1]; T = 1 h after injection): 1.86 fold
Fold Change Compared to TIME = 0, nucleated cellularity PBL-US, MEAN ([1]; T = 1 h after injection): 1.69 fold
% CHG, nucleated cellularity PBL-LD ([1]; T = 3 h after injection): 185.6%
% CHG, nucleated cellularity PBL-US ([1]; T = 3 h after injection): 180.2%
Fold Change Compared to TIME = 0, nucleated cellularity PBL-LD, MEAN ([1]; T = 3 h after injection): 2.86 fold
Fold Change Compared to TIME = 0, nucleated cellularity PBL-US, MEAN ([1]; T = 3 h after injection): 2.80 fold
% CHG, nucleated cellularity PBL-LD ([1]; T = 6 h after injection): 266.3%
% CHG, nucleated cellularity PBL-US ([1]; T = 6 h after injection): 225.8%
Fold Change Compared to TIME = 0, nucleated cellularity PBL-LD, MEAN ([1]; T = 6 h after injection): 3.66 fold
Fold Change Compared to TIME = 0, nucleated cellularity PBL-US, MEAN ([1]; T = 6 h after injection): 3.26 fold
% CHG, nucleated cellularity PBL-LD ([1]; T = 9 h after injection): 264.3%
% CHG, nucleated cellularity PBL-US ([1]; T = 9 h after injection): 209.4%
Fold Change Compared to TIME = 0, nucleated cellularity PBL-LD, MEAN ([1]; T = 9 h after injection): 3.64 fold
Fold Change Compared to TIME = 0, nucleated cellularity PBL-US, MEAN ([1]; T = 9 h after injection): 3.09 fold
% CHG, nucleated cellularity PBL-LD ([1]; T = 24 h after injection): 4.6%
% CHG, nucleated cellularity PBL-US ([1]; T = 24 h after injection): 7.0%
Fold Change Compared to TIME = 0, nucleated cellularity PBL-LD, MEAN ([1]; T = 24 h after injection): 1.05 fold
Fold Change Compared to TIME = 0, nucleated cellularity PBL-US, MEAN ([1]; T = 24 h after injection): 1.07 fold
time post-administration at which elevation of CD34 positive progenitor cells maximized ([2]; human volunteers, 80 μg/kg s.c.): 6 h
CD34 positive cells ([2]; volunteer P1, 1 Hr after 80 μg/kg s.c.): .04 percentage of the total WBC's
CD34 positive cells ([2]; volunteer P1, 3 Hr after 80 μg/kg s.c.): .07 percentage of the total WBC's
CD34 positive cells ([2]; volunteer P1, 6 Hr after 80 μg/kg s.c.): .11 percentage of the total WBC's
CD34 positive cells ([2]; volunteer P1, 9 Hr after 80 μg/kg s.c.): .11 percentage of the total WBC's
CD34 positive cells ([2]; volunteer P1, Day 2 after 80 μg/kg s.c.): .08 percentage of the total WBC's
CD34 positive cells ([2]; volunteer P2, 1 Hr after 80 μg/kg s.c.): .06 percentage of the total WBC's
CD34 positive cells ([2]; volunteer P2, 3 Hr after 80 μg/kg s.c.): .08 percentage of the total WBC's
CD34 positive cells ([2]; volunteer P2, 6 Hr after 80 μg/kg s.c.): .13 percentage of the total WBC's
CD34 positive cells ([2]; volunteer P2, 9 Hr after 80 μg/kg s.c.): .11 percentage of the total WBC's
